Measurements published in US20180318383A1, “PEPTIDE HAVING NEURONAL LOSS PREVENTION AND REGENERATION EFFECTS, AND COMPOSITION CONTAINING SAME” (GEMVAX & KAEL CO., LTD., priority 2015, published 2018).

Tests used:
[1] = Cell-free ROS production (DHBA level by HPLC); settings: 20 μM Aβ25-35 and PEP1 0, 1, 10, 50 μM
Description: To investigate how Aβ25-30 and PEP1 influenced ROS, a DHBA level was measured and observed by a cell-free method. This method was carried out by observing the DHBA level in a tube containing 20 μM Aβ25-30 and each concentration of PEP1 (0, 1, 10 or 50 μM) through HPLC.

[2] = tested on: AD transgenic mice (3XTg-AD); assay: Passive avoidance test; format: in vivo
Description: To test the efficacy of PEP1 on AD, AD transgenic mice (3XTg-AD) were purchased from Jackson Laboratory. Genetic characteristics of the transgenic mice are as follows: B6; 129-Psen1tm1Mpm Tg(APPSwe, tauP301L)1Lfa/Mmjax. […] One week after mice were confirmed as pregnant, new mice were delivered and weaned for 3 weeks. Two weeks later, mature mice were obtained.
During the preliminary breeding and the entire period of the experiment, a temperature was maintained at 23±2° C. and a relative humidity was maintained at 60±10%, and then the mice were raised under a 12-hour dark/light cycle. Experimental animals were divided into five groups, and each group included 10 animals. The divided experimental groups are as follows. […]
The PEP1, physiological saline, donepezil and […], and then two months after the injection, cognitive/memory behavior tests (passive avoidance test and Y maze test) were performed to examine a degree of improvement in cognitive function and memory function. After the brain was extracted to separate the hippocampus, the amounts of amyloid beta in the hippocampus and the whole brain, and the amounts of an amyloid beta oligomer and NFT generated by tau hyperphosphorylation were determined by western blotting and immunostaining. […]

EARPALLTSRLRFIPK (homo sapiens) [PEP1, hTERT-derived peptide consisting of 16 amino acids, telomerase location [611-626]]
ROS production under a cell-free condition [1]: did not exhibit a significant influence | avoidance ability (passive avoidance test) ([2]; 3XTg-AD mice, treated from age 12 months, tested two months after injection, vs control and Donepezil): excellent avoidance ability | time and frequency of staying in the bright room (passive avoidance test) ([2]; severe AD models, 20-month-old or older 3XTg-AD mice, PEP1 1 mg/kg s.c., vs physiological saline): increased
